pEC50: −log10 of the molar value. Read-outs that look alike come from different tables or passages of the source.
Experiments:
[1] = tested on: 2D rat cortical cultures; details: cited from earlier work; for AC50: rNFA mc5; as to hitc CCTE Shafer MEA dev active electrodes number: key: 1 (active); 0 (inactive); as to hitc CCTE Shafer MEA dev burst duration mean: key: 1 (active); 0 (inactive); as to hitc CCTE Shafer MEA dev burst rate: key: 1 (active); 0 (inactive); as to hitc CCTE Shafer MEA dev bursting electrodes number: key: 1 (active); 0 (inactive); as to hitc CCTE Shafer MEA dev correlation coefficient mean: key: 1 (active); 0 (inactive); as to hitc CCTE Shafer MEA dev firing rate mean: key: 1 (active); 0 (inactive); as to hitc CCTE Shafer MEA dev inter network spike interval mean: key: 1 (active); 0 (inactive); as to hitc CCTE Shafer MEA dev interburst interval mean: key: 1 (active); 0 (inactive); as to hitc CCTE Shafer MEA dev mutual information norm: key: 1 (active); 0 (inactive); as to hitc CCTE Shafer MEA dev network spike duration std: key: 1 (active); 0 (inactive); as to hitc CCTE Shafer MEA dev network spike number: key: 1 (active); 0 (inactive); as to hitc CCTE Shafer MEA dev network spike peak: key: 1 (active); 0 (inactive); as to hitc CCTE Shafer MEA dev per burst interspike interval: key: 1 (active); 0 (inactive); as to hitc CCTE Shafer MEA dev per burst spike percent: key: 1 (active); 0 (inactive); as to hitc CCTE Shafer MEA dev per network spike spike number mean: key: 1 (active); 0 (inactive); as to hitc CCTE Shafer MEA dev per network spike spike percent: key: 1 (active); 0 (inactive); as to hitc CCTE Shafer MEA dev spike duration mean: key: 1 (active); 0 (inactive)
[2] = tested on: human iPSC-derived 3D BrainSpheres; test: BrainSphere MEA assay (HD-MEA, 13-day exposure, concentration-response); format: cell-based; details: for AC50: concentration at 50% maximal activity, Supplement 3 prints it also for curves with hit call 0; as to hitc Mean.Spheroid.Burst.Duration: key: 1 (active); 0 (inactive); as to hitc Mean.Spheroid.Burst.ISI: key: 1 (active); 0 (inactive); as to hitc Mean.Spheroid.Burst.Peak.Firing.Rate: key: 1 (active); 0 (inactive); as to hitc Mean.Spheroid.Firing.Rate: key: 1 (active); 0 (inactive); as to hitc Mean.Spheroid.IBI: key: 1 (active); 0 (inactive); as to hitc Mean.Spheroid.Nonburst.ISI: key: 1 (active); 0 (inactive); as to hitc Mean.Spheroid.Spikes.per.Burst.per.Electrode: key: 1 (active); 0 (inactive); as to hitc Mean.Spheroid.Spikes.per.Burst: key: 1 (active); 0 (inactive); as to hitc Spheroid.Burst.Frequency: key: 1 (active); 0 (inactive); as to hitc Spheroid.Spike.Amplitude.90th.Percentile: key: 1 (active); 0 (inactive)
Method in brief: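 7-week-differentiated BrainSpheres were plated on laminin/poly-D-lysine-coated HD-MEA chips and given 2 days to attach. Neural activity was recorded from the same regions of interest through a 13-day exposure, from day 0 onward. Ten network and general activity endpoints were derived per BrainSphere, with ≥3 biological replicates.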

[3] = AUC over 13-day exposure, tcplfit2
[4] = tcplfit2 BMD at benchmark response (1.349*SD of baseline controls)
[5] = tcplfit2 output ACC, activity cutoff in Supplemental Table 1
[6] = top of winning model, response normalized as percent of vehicle control, negative = decrease

## [CH3][Hg][Cl] [Methylmercury]
[1]; aenm active_electrodes_number, read-out: ac50 CCTE_Shafer_MEA_dev_active_electrodes_number
  AC50: 0.36 µM
[1]; aenm burst_duration_mean, read-out: ac50 CCTE_Shafer_MEA_dev_burst_duration_mean
  AC50: 0.26 µM
[1]; aenm burst_rate, read-out: ac50 CCTE_Shafer_MEA_dev_burst_rate
  AC50: 0.207 µM
[1]; aenm bursting_electrodes_number, read-out: ac50 CCTE_Shafer_MEA_dev_bursting_electrodes_number
  AC50: 0.37 µM
[1]; aenm correlation_coefficient_mean, read-out: ac50 CCTE_Shafer_MEA_dev_correlation_coefficient_mean
  AC50: 0.306 µM
[1]; aenm firing_rate_mean, read-out: ac50 CCTE_Shafer_MEA_dev_firing_rate_mean
  AC50: 0.177 µM
[1]; aenm inter_network_spike_interval_mean, read-out: ac50 CCTE_Shafer_MEA_dev_inter_network_spike_interval_mean
  AC50: 0.006 µM
[1]; aenm interburst_interval_mean, read-out: ac50 CCTE_Shafer_MEA_dev_interburst_interval_mean
  AC50: 0.34 µM
[1]; aenm mutual_information_norm, read-out: ac50 CCTE_Shafer_MEA_dev_mutual_information_norm
  AC50: 0.134 µM
[1]; aenm network_spike_duration_std, read-out: ac50 CCTE_Shafer_MEA_dev_network_spike_duration_std
  AC50: 0.164 µM
[1]; aenm network_spike_number, read-out: ac50 CCTE_Shafer_MEA_dev_network_spike_number
  AC50: 0.087 µM
[1]; aenm network_spike_peak, read-out: ac50 CCTE_Shafer_MEA_dev_network_spike_peak
  AC50: 0.356 µM
[1]; aenm per_burst_interspike_interval, read-out: ac50 CCTE_Shafer_MEA_dev_per_burst_interspike_interval
  AC50: 0.322 µM
[1]; aenm per_burst_spike_percent, read-out: ac50 CCTE_Shafer_MEA_dev_per_burst_spike_percent
  AC50: 0.306 µM
[1]; aenm per_network_spike_spike_number_mean, read-out: ac50 CCTE_Shafer_MEA_dev_per_network_spike_spike_number_mean
  AC50: 0.536 µM
[1]; aenm per_network_spike_spike_percent, read-out: ac50 CCTE_Shafer_MEA_dev_per_network_spike_spike_percent
  AC50: 0.309 µM
[1]; aenm spike_duration_mean, read-out: ac50 CCTE_Shafer_MEA_dev_spike_duration_mean
  AC50: 0.275 µM
[1]; rNFA mc5 hit call, aenm active_electrodes_number
  hitc CCTE_Shafer_MEA_dev_active_electrodes_number: 1
[1]; rNFA mc5 hit call, aenm burst_duration_mean
  hitc CCTE_Shafer_MEA_dev_burst_duration_mean: 1
[1]; rNFA mc5 hit call, aenm burst_rate
  hitc CCTE_Shafer_MEA_dev_burst_rate: 1
[1]; rNFA mc5 hit call, aenm bursting_electrodes_number
  hitc CCTE_Shafer_MEA_dev_bursting_electrodes_number: 1
[1]; rNFA mc5 hit call, aenm correlation_coefficient_mean
  hitc CCTE_Shafer_MEA_dev_correlation_coefficient_mean: 1
[1]; rNFA mc5 hit call, aenm firing_rate_mean
  hitc CCTE_Shafer_MEA_dev_firing_rate_mean: 1
[1]; rNFA mc5 hit call, aenm inter_network_spike_interval_mean
  hitc CCTE_Shafer_MEA_dev_inter_network_spike_interval_mean: 1
[1]; rNFA mc5 hit call, aenm interburst_interval_mean
  hitc CCTE_Shafer_MEA_dev_interburst_interval_mean: 1
[1]; rNFA mc5 hit call, aenm mutual_information_norm
  hitc CCTE_Shafer_MEA_dev_mutual_information_norm: 1
[1]; rNFA mc5 hit call, aenm network_spike_duration_std
  hitc CCTE_Shafer_MEA_dev_network_spike_duration_std: 1
[1]; rNFA mc5 hit call, aenm network_spike_number
  hitc CCTE_Shafer_MEA_dev_network_spike_number: 1
[1]; rNFA mc5 hit call, aenm network_spike_peak
  hitc CCTE_Shafer_MEA_dev_network_spike_peak: 1
[1]; rNFA mc5 hit call, aenm per_burst_interspike_interval
  hitc CCTE_Shafer_MEA_dev_per_burst_interspike_interval: 1
[1]; rNFA mc5 hit call, aenm per_burst_spike_percent
  hitc CCTE_Shafer_MEA_dev_per_burst_spike_percent: 1
[1]; rNFA mc5 hit call, aenm per_network_spike_spike_number_mean
  hitc CCTE_Shafer_MEA_dev_per_network_spike_spike_number_mean: 1
[1]; rNFA mc5 hit call, aenm per_network_spike_spike_percent
  hitc CCTE_Shafer_MEA_dev_per_network_spike_spike_percent: 1
[1]; rNFA mc5 hit call, aenm spike_duration_mean
  hitc CCTE_Shafer_MEA_dev_spike_duration_mean: 1
[2]; 5th percentile across active AC50 values per chemical, read-out: Minimum potency
  pEC50: 5.62
[2]; 5th percentile of AC50 values by chemical, above 0.5 = more potent in the rNFA
  Difference of minimum potency between BrainSphere MEA assay and rNFA: more than 0.5 log10 µM
[2]; [3]
  hitc Mean.Spheroid.Burst.Duration: 1
  hitc Mean.Spheroid.Burst.ISI: 1
  hitc Mean.Spheroid.Burst.Peak.Firing.Rate: 1
  hitc Mean.Spheroid.Firing.Rate: 1
  hitc Mean.Spheroid.IBI: 1
  hitc Mean.Spheroid.Nonburst.ISI: 1
  hitc Mean.Spheroid.Spikes.per.Burst: 1
  hitc Mean.Spheroid.Spikes.per.Burst.per.Electrode: 1
  hitc Spheroid.Burst.Frequency: 1
  hitc Spheroid.Spike.Amplitude.90th.Percentile: 1
[2]; DOE 0-13, highest tested concentrations, Fig. 3
  Bioactivity trend over time for MFR, mean spike amplitude and burst frequency (qualitative): appeared to decrease activity
[2]; listed as Methylmercuric(II) chloride, read-out: ac50 Mean.Spheroid.Burst.Duration
  AC50: 5.9 µM
[2]; listed as Methylmercuric(II) chloride, read-out: ac50 Mean.Spheroid.Burst.ISI
  AC50: 3.3 µM
[2]; listed as Methylmercuric(II) chloride, read-out: ac50 Mean.Spheroid.Burst.Peak.Firing.Rate
  AC50: 3 µM
[2]; listed as Methylmercuric(II) chloride, read-out: ac50 Mean.Spheroid.Firing.Rate
  AC50: 7.7 µM
[2]; listed as Methylmercuric(II) chloride, read-out: ac50 Mean.Spheroid.IBI
  AC50: 6.3 µM
[2]; listed as Methylmercuric(II) chloride, read-out: ac50 Mean.Spheroid.Nonburst.ISI
  AC50: 2.6 µM
[2]; listed as Methylmercuric(II) chloride, read-out: ac50 Mean.Spheroid.Spikes.per.Burst
  AC50: 7.9 µM
[2]; listed as Methylmercuric(II) chloride, read-out: ac50 Mean.Spheroid.Spikes.per.Burst.per.Electrode
  AC50: 6.5 µM
[2]; listed as Methylmercuric(II) chloride, read-out: ac50 Spheroid.Burst.Frequency
  AC50: 2.3 µM
[2]; listed as Methylmercuric(II) chloride, read-out: ac50 Spheroid.Spike.Amplitude.90th.Percentile
  AC50: 16 µM
[2]; read-out: ac50 Mean.Spheroid.Burst.Duration
  AC50: 5.91 µM
[2]; read-out: ac50 Mean.Spheroid.Burst.ISI
  AC50: 3.34 µM
[2]; read-out: ac50 Mean.Spheroid.Burst.Peak.Firing.Rate
  AC50: 3.02 µM
[2]; read-out: ac50 Mean.Spheroid.Firing.Rate
  AC50: 7.68 µM
[2]; read-out: ac50 Mean.Spheroid.IBI
  AC50: 6.32 µM
[2]; read-out: ac50 Mean.Spheroid.Nonburst.ISI
  AC50: 2.56 µM
[2]; read-out: ac50 Mean.Spheroid.Spikes.per.Burst
  AC50: 7.9 µM
[2]; read-out: ac50 Mean.Spheroid.Spikes.per.Burst.per.Electrode
  AC50: 6.46 µM
[2]; read-out: ac50 Spheroid.Burst.Frequency
  AC50: 2.29 µM
[2]; read-out: ac50 Spheroid.Spike.Amplitude.90th.Percentile
  AC50: 16 µM
[2]; mean across active AC50 values per chemical, read-out: Mean potency
  pEC50: 5.21
[2]; metrics active out of the total number of metrics screened
  Percent active: 100%
[2]; [4]
  BMD Mean.Spheroid.Burst.Duration: 5.5 µM
  BMD Mean.Spheroid.Burst.ISI: 2.3 µM
  BMD Mean.Spheroid.Burst.Peak.Firing.Rate: 2.6 µM
  BMD Mean.Spheroid.Firing.Rate: 7.8 µM
  BMD Mean.Spheroid.IBI: 5.9 µM
  BMD Mean.Spheroid.Nonburst.ISI: 1.8 µM
  BMD Mean.Spheroid.Spikes.per.Burst: 7.7 µM
  BMD Mean.Spheroid.Spikes.per.Burst.per.Electrode: 6.2 µM
  BMD Spheroid.Burst.Frequency: 2.4 µM
  BMD Spheroid.Spike.Amplitude.90th.Percentile: 5.1 µM
[2]; [5]
  ACC Mean.Spheroid.Burst.Duration: 5.4 µM
  ACC Mean.Spheroid.Burst.ISI: 1.7 µM
  ACC Mean.Spheroid.Burst.Peak.Firing.Rate: 2.5 µM
  ACC Mean.Spheroid.Firing.Rate: 8.2 µM
  ACC Mean.Spheroid.IBI: 6.3 µM
  ACC Mean.Spheroid.Nonburst.ISI: 2.2 µM
  ACC Mean.Spheroid.Spikes.per.Burst: 8 µM
  ACC Mean.Spheroid.Spikes.per.Burst.per.Electrode: 6.4 µM
  ACC Spheroid.Burst.Frequency: 2 µM
  ACC Spheroid.Spike.Amplitude.90th.Percentile: 10 µM
[2]; [6]
  Top Mean.Spheroid.Burst.Duration: −97
  Top Mean.Spheroid.Burst.ISI: −99
  Top Mean.Spheroid.Burst.Peak.Firing.Rate: −95
  Top Mean.Spheroid.Firing.Rate: −88
  Top Mean.Spheroid.IBI: −94
  Top Mean.Spheroid.Nonburst.ISI: −100
  Top Mean.Spheroid.Spikes.per.Burst: −100
  Top Mean.Spheroid.Spikes.per.Burst.per.Electrode: −95
  Top Spheroid.Burst.Frequency: −100
  Top Spheroid.Spike.Amplitude.90th.Percentile: −21
[2]; total number of active endpoints out of 10 MEA activity metrics, 13-day exposure
  Hits: 10

Reference: PMC12198282, “Application of a high-density microelectrode array assay using a 3D human iPSC-derived brain microphysiological system model for in vitro neurotoxicity screening of environmental compounds” (Archives of Toxicology, 2025)
